Reference: the NIST ThermoML archive (doi:10.1016/j.jct.2004.05.006)
± gives the expanded uncertainty stated by the source. One block for each compound: values may come before it.

Tests used:
[1] = 298.15 K; 101.33 kPa; Liquid
[2] = excess molar enthalpy (molar enthalpy of mixing); xn = mol fraction of the nth substance listed; settings: 298.15 K, 101.3 kPa, Liquid, Flow calorimetry

SMILES: COC(C)(C)C [2-methoxy-2-methylpropane]
mass density [1]: 735.69 ± 0.73 kg/m3

SMILES: CCCCCCCCCC [decane]
mass density [1]: 726.31 ± 0.81 kg/m3

SMILES: CCCCCCCCCCCC [dodecane]
mass density [1]: 745.38 ± 0.78 kg/m3

Second part, the compound after the results:

mass density [1]: 649.78 ± 0.94 kg/m3
SMILES: CCCC(C)C [2-methylpentane]

excess molar enthalpy ([2]; x2 = 0.0532): 0.00897 ± 0.000335 kcal/mol | excess molar enthalpy ([2]; x2 = 0.1063): 0.0214 ± 0.000454 kcal/mol | excess molar enthalpy ([2]; x2 = 0.1589): 0.0336 ± 0.000574 kcal/mol | excess molar enthalpy ([2]; x2 = 0.2113): 0.0437 ± 0.000669 kcal/mol | excess molar enthalpy ([2]; x2 = 0.2633): 0.0523 ± 0.000765 kcal/mol | excess molar enthalpy ([2]; x2 = 0.315): 0.0597 ± 0.000837 kcal/mol | excess molar enthalpy ([2]; x2 = 0.3658): 0.065 ± 0.000884 kcal/mol | excess molar enthalpy ([2]; x2 = 0.4165): 0.0691 ± 0.000932 kcal/mol | excess molar enthalpy ([2]; x2 = 0.4667): 0.0717 ± 0.000956 kcal/mol | excess molar enthalpy ([2]; x2 = 0.5174): 0.0725 ± 0.000956 kcal/mol | excess molar enthalpy ([2]; x2 = 0.5673): 0.0711 ± 0.000956 kcal/mol | excess molar enthalpy ([2]; x2 = 0.6165): 0.0696 ± 0.000932 kcal/mol | excess molar enthalpy ([2]; x2 = 0.6652): 0.0659 ± 0.000908 kcal/mol | excess molar enthalpy ([2]; x2 = 0.7143): 0.0608 ± 0.000837 kcal/mol | excess molar enthalpy ([2]; x2 = 0.7628): 0.0542 ± 0.000789 kcal/mol | excess molar enthalpy ([2]; x2 = 0.81): 0.0462 ± 0.000693 kcal/mol | excess molar enthalpy ([2]; x2 = 0.8548): 0.0376 ± 0.000621 kcal/mol | excess molar enthalpy ([2]; x2 = 0.906): 0.0257 ± 0.000502 kcal/mol | excess molar enthalpy ([2]; x2 = 0.9531): 0.0136 ± 0.000382 kcal/mol
SMILES: CCCC(C)C [2-methylpentane] + COC(C)(C)C
